Data taken from ChEMBL document CHEMBL3352029, “Ring fusion strategy for the synthesis of anthra[2,3-d]oxazole-2-thione-5,10-dione homologues as DNA topoisomerase inhibitors and as antitumor agents” (Eur J Med Chem, 2014).

Key:
[1] = test system: SR; test: Cytotoxicity against human SR cells assessed as cell growth level at 10 uM after 48 hrs by sulforhodamine B assay; type: functional
[2] = test system: MDA-MB-231; test: Cytotoxicity against human MDA-MB-231 cells assessed as cell growth level at 10 uM after 48 hrs by sulforhodamine B assay; type: functional
[3] = test system: DU-145; test: Cytotoxicity against human DU145 cells assessed as cell growth level at 10 uM after 48 hrs by sulforhodamine B assay; type: functional
[4] = test system: NCI-H522; test: Cytotoxicity against human NCI-H522 cells assessed as cell growth level at 10 uM after 48 hrs by sulforhodamine B assay; type: functional
[5] = test system: IGROV-1; test: Cytotoxicity against human IGROV1 cells assessed as cell growth level at 10 uM after 48 hrs by sulforhodamine B assay; type: functional
[6] = test system: BT-549; test: Cytotoxicity against human BT549 cells assessed as cell growth level at 10 uM after 48 hrs by sulforhodamine B assay; type: functional
[7] = test system: SK-MEL-28; test: Cytotoxicity against human SK-MEL-28 cells assessed as cell growth level at 10 uM after 48 hrs by sulforhodamine B assay; type: functional
[8] = test system: K562; test: Cytotoxicity against human K562 cells assessed as cell growth level at 10 uM after 48 hrs by sulforhodamine B assay; type: functional
[9] = test system: 786-0; test: Cytotoxicity against human 786-0 cells assessed as cell growth level at 10 uM after 48 hrs by sulforhodamine B assay; type: functional
[10] = test system: MCF7; test: Cytotoxicity against human MCF7 cells assessed as cell growth level at 10 uM after 48 hrs by sulforhodamine B assay; type: functional
[11] = Cytotoxicity against human OVCAR3 cells assessed as cell growth level at 10 uM after 48 hrs by sulforhodamine B assay; type: functional, OVCAR-3
[12] = Cytotoxicity against human UACC257 cells assessed as cell growth level at 10 uM after 48 hrs by sulforhodamine B assay; type: functional, UACC-257
[13] = test system: NCI-H322M; test: Cytotoxicity against human NCI-H322M cells assessed as cell growth level at 10 uM after 48 hrs by sulforhodamine B assay; type: functional
[14] = Cytotoxicity against human SKOV3 cells assessed as cell growth level at 10 uM after 48 hrs by sulforhodamine B assay; type: functional, SK-OV-3
[15] = test system: SF-539; test: Cytotoxicity against human SF539 cells assessed as cell growth level at 10 uM after 48 hrs by sulforhodamine B assay; type: functional
[16] = Cytotoxicity against human UACC62 cells assessed as cell growth level at 10 uM after 48 hrs by sulforhodamine B assay; type: functional, UACC-62
[17] = Cytotoxicity against human OVCAR5 cells assessed as cell growth level at 10 uM after 48 hrs by sulforhodamine B assay; type: functional, OVCAR-5
[18] = test system: A549; test: Cytotoxicity against human A549/ATCC cells assessed as cell growth level at 10 uM after 48 hrs by sulforhodamine B assay; type: functional
[19] = test system: COLO 205; test: Cytotoxicity against human COLO205 cells assessed as cell growth level at 10 uM after 48 hrs by sulforhodamine B assay; type: functional
[20] = Cytotoxicity against human Hs 578T cells assessed as cell growth level at 10 uM after 48 hrs by sulforhodamine B assay; type: functional
[21] = test system: T47D; test: Cytotoxicity against human T47D cells assessed as cell growth level at 10 uM after 48 hrs by sulforhodamine B assay; type: functional
[22] = test system: MDA-MB-468; test: Cytotoxicity against human MDA-MB-468 cells assessed as cell growth level at 10 uM after 48 hrs by sulforhodamine B assay; type: functional
[23] = test system: ACHN; test: Cytotoxicity against human ACHN cells assessed as cell growth level at 10 uM after 48 hrs by sulforhodamine B assay; type: functional
[24] = test system: A498; test: Cytotoxicity against human A498 cells assessed as cell growth level at 10 uM after 48 hrs by sulforhodamine B assay; type: functional
[25] = test system: SK-MEL-2; test: Cytotoxicity against human SK-MEL-2 cells assessed as cell growth level at 10 uM after 48 hrs by sulforhodamine B assay; type: functional
[26] = test system: MOLT-4; test: Cytotoxicity against human MOLT4 cells assessed as cell growth level at 10 uM after 48 hrs by sulforhodamine B assay; type: functional
[27] = test system: Malme-3M; test: Cytotoxicity against human MALME-3M cells assessed as cell growth level at 10 uM after 48 hrs by sulforhodamine B assay; type: functional
[28] = Cytotoxicity against human OVCAR4 cells assessed as cell growth level at 10 uM after 48 hrs by sulforhodamine B assay; type: functional, OVCAR-4
[29] = test system: SN12C; test: Cytotoxicity against human SN12C cells assessed as cell growth level at 10 uM after 48 hrs by sulforhodamine B assay; type: functional
[30] = test system: NCI-H460; test: Cytotoxicity against human NCI-H460 cells assessed as cell growth level at 10 uM after 48 hrs by sulforhodamine B assay; type: functional
[31] = test system: RXF 393; test: Cytotoxicity against human RXF393 cells assessed as cell growth level at 10 uM after 48 hrs by sulforhodamine B assay; type: functional
[32] = test system: SK-MEL-5; test: Cytotoxicity against human SK-MEL-5 cells assessed as cell growth level at 10 uM after 48 hrs by sulforhodamine B assay; type: functional
[33] = test system: TK-10; test: Cytotoxicity against human TK10 cells assessed as cell growth level at 10 uM after 48 hrs by sulforhodamine B assay; type: functional
[34] = Cytotoxicity against human HCT116 cells assessed as cell growth level at 10 uM after 48 hrs by sulforhodamine B assay; type: functional, HCT-116
[35] = Cytotoxicity against human UO31 cells assessed as cell growth level at 10 uM after 48 hrs by sulforhodamine B assay; type: functional, UO-31
[36] = Cytotoxicity against human OVCAR8 cells assessed as cell growth level at 10 uM after 48 hrs by sulforhodamine B assay; type: functional, OVCAR-8
[37] = test system: NCI-H23; test: Cytotoxicity against human NCI-H23 cells assessed as cell growth level at 10 uM after 48 hrs by sulforhodamine B assay; type: functional
[38] = Cytotoxicity against human PC3 cells assessed as cell growth level at 10 uM after 48 hrs by sulforhodamine B assay; type: functional, PC-3
[39] = test system: SF-295; test: Cytotoxicity against human SF295 cells assessed as cell growth level at 10 uM after 48 hrs by sulforhodamine B assay; type: functional
[40] = test system: SW-620; test: Cytotoxicity against human SW620 cells assessed as cell growth level at 10 uM after 48 hrs by sulforhodamine B assay; type: functional
[41] = test system: M14; test: Cytotoxicity against human M14 cells assessed as cell growth level at 10 uM after 48 hrs by sulforhodamine B assay; type: functional
[42] = Cytotoxicity against human PC3 cells assessed as inhibition of cell growth after 48 hrs by sulforhodamine B assay; type: functional, cell-based; details: PC-3, 48 h
[43] = test system: SNB-19; test: Cytotoxicity against human SNB19 cells assessed as cell growth level at 10 uM after 48 hrs by sulforhodamine B assay; type: functional
[44] = test system: SF-268; test: Cytotoxicity against human SF268 cells assessed as cell growth level at 10 uM after 48 hrs by sulforhodamine B assay; type: functional
[45] = test system: CCRF-CEM; test: Cytotoxicity against human CCRF-CEM cells assessed as cell growth level at 10 uM after 48 hrs by sulforhodamine B assay; type: functional
[46] = test system: CAKI-1; test: Cytotoxicity against human CAKI-1 cells assessed as cell growth level at 10 uM after 48 hrs by sulforhodamine B assay; type: functional
[47] = test system: HL-60(TB); test: Cytotoxicity against human HL-60(TB) cells assessed as cell growth level at 10 uM after 48 hrs by sulforhodamine B assay; type: functional

For CCSc1nc2cc3c(cc2o1)C(=O)c1ccccc1C3=O, the Activity [1] was 92.53%, the Activity [2] was 90.66% and the Activity [3] was 107.71%. For the same compound, the Activity [4] was 80.08%, the Activity [5] was 79.05% and the Activity [6] was 114.59%. For the same compound, the Activity [7] was 92.36%, the Activity [8] was 96.26% and the Activity [9] was 99.33%. It also gave an Activity [10] of 81.27%, an Activity [11] of 101% and an Activity [12] of 92.45%. For the same compound, the Activity [13] was 77.88%, the Activity [14] was 90.67% and the Activity [15] was 94.61%. The Activity [16] was 89.01%, the Activity [17] was 104.57% and the Activity [18] was 96.49%. The Activity [19] was 98.08%, the Activity [20] was 81.15% and the Activity [21] was 96.02%. For the same compound, the Activity [22] was 88.73%, the Activity [23] was 90.86% and the Activity [24] was 80.69%. It also gave an Activity [25] of 96.71%, an Activity [26] of 101.76% and an Activity [27] of 91.75%. It also gave an Activity [28] of 94.25%, an Activity [29] of 98.57% and an Activity [30] of 100.33%. It also gave an Activity [31] of 101%, an Activity [32] of 100.35% and an Activity [33] of 100.92%. The Activity [34] was 95.99%, the Activity [35] was 57.94% and the Activity [36] was 92.46%. The Activity [37] was 90.76%, the Activity [38] was 84.23% and the Activity [39] was 92.06%. For the same compound, the Activity [40] was 91.86%, the Activity [41] was 98.8% and the IC50 [42] was > 30 µM. For the same compound, the Activity [43] was 99.9%, the Activity [44] was 102.22% and the Activity [45] was 90.48%. It also gave an Activity [46] of 93.49% and an Activity [47] of 96.05%.
Compound CN(C)CCCSc1nc2cc3c(cc2o1)C(=O)c1ccccc1C3=O has an Activity [1] of 28.03%, an Activity [2] of 71.49% and an Activity [3] of 53.81%. For the same compound, the Activity [4] was 70.64%, the Activity [5] was 71.71% and the Activity [6] was 107.23%. For the same compound, the Activity [7] was 108.23%, the Activity [8] was 51.17% and the Activity [9] was 86.09%. For the same compound, the Activity [10] was 52.24%, the Activity [11] was 100.68% and the Activity [12] was 99.82%. The Activity [13] was 85.16%, the Activity [14] was 77.71% and the Activity [15] was 87.3%. For the same compound, the Activity [16] was 86%, the Activity [17] was 86.43% and the Activity [18] was 54.13%. It also gave an Activity [19] of 59.49%, an Activity [20] of 91.54% and an Activity [21] of 82.2%. The Activity [22] was 88.6%, the Activity [23] was 57.3% and the Activity [24] was 72.09%. It also gave an Activity [25] of 92.13%, an Activity [26] of 13.77% and an Activity [27] of 101.35%. It also gave an Activity [28] of 109.08%, an Activity [29] of 88.52% and an Activity [30] of 60.58%. For the same compound, the Activity [31] was 83.05%, the Activity [32] was 90.17% and the Activity [33] was 73.42%. The Activity [34] was 59.24%, the Activity [35] was 59.82% and the Activity [36] was 72.26%. It also gave an Activity [37] of 97.69%, an Activity [38] of 85.96% and an Activity [39] of 92.69%. It also gave an Activity [40] of 69.11%, an Activity [41] of 101.41% and an IC50 [42] of 16 µM. The Activity [43] was 90.07%, the Activity [44] was 102.39% and the Activity [45] was 55.33%. The Activity [46] was 73.88% and the Activity [47] was 75.05%.
Compound O=C1c2ccccc2C(=O)c2cc3oc(SCc4ccc(F)cc4)nc3cc21 has an Activity [1] of 85.14%, an Activity [2] of 103.32% and an Activity [3] of 103.51%. For the same compound, the Activity [4] was 80.08%, the Activity [5] was 87.04% and the Activity [6] was 102.4%. For the same compound, the Activity [7] was 98.54%, the Activity [8] was 93.54% and the Activity [9] was 98.08%. For the same compound, the Activity [10] was 80.56%, the Activity [11] was 115.02% and the Activity [12] was 98.94%. The Activity [13] was 85.42%, the Activity [14] was 86.24% and the Activity [15] was 94.71%. It also gave an Activity [16] of 89.94%, an Activity [17] of 94.94% and an Activity [18] of 83.66%. It also gave an Activity [19] of 103.52%, an Activity [20] of 95.47% and an Activity [21] of 102.69%. It also gave an Activity [22] of 90.68%, an Activity [23] of 82.53% and an Activity [24] of 94.5%. It also gave an Activity [25] of 86.04%, an Activity [26] of 90.09% and an Activity [27] of 89.8%. The Activity [28] was 74.06%, the Activity [29] was 92.48% and the Activity [30] was 84.05%. It also gave an Activity [31] of 90.29%, an Activity [32] of 97.58% and an Activity [33] of 92.13%. It also gave an Activity [34] of 88.61%, an Activity [35] of 77.49% and an Activity [36] of 94.89%. For the same compound, the Activity [37] was 90.64%, the Activity [38] was 88.52% and the Activity [39] was 86.95%. For the same compound, the Activity [40] was 100.32%, the Activity [41] was 103.58% and the IC50 [42] was > 30 µM. The Activity [43] was 104.56%, the Activity [44] was 103.49% and the Activity [45] was 86.28%. The Activity [46] was 90.54% and the Activity [47] was 95.74%.
